Test results reported in patent US11298367B2, “Prodrugs of substituted triazole derivatives and uses thereof” (Bayer Aktiengesellschaft, priority 2017, dated 2022).

Legend:
[1] = target: T1, human V2 receptor (Homo sapiens, UniProt P30518); experiment: Cellular in vitro assay for vasopressin receptor activity (V2, CRE-luciferase); format: cell-based; conditions: CHO cell line with human V2 receptor, [Arg8]-vasopressin at EC50; values are for the prodrug as such; read-out: IC50 hV2
T1 construct: expressed in transfected cells; host or cells: CHO K1 cells expressing firefly luciferase under a CRE-responsive promoter
T1 sequence (P30518 whole entry): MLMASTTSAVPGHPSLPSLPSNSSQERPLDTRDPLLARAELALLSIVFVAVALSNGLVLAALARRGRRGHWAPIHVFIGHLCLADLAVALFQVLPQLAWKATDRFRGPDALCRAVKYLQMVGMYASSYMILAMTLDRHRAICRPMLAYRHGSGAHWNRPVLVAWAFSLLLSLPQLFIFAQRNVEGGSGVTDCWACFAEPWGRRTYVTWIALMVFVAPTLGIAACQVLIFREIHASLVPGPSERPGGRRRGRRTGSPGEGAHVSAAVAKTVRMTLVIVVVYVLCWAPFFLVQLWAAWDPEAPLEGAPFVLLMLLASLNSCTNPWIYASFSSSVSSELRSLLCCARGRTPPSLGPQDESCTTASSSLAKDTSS
Description: (§1) B-1. Cellular In Vitro Assay for Determining Vasopressin Receptor Activity
(§2) The identification of agonists and antagonists of the V1a and V2 vasopressin receptors from humans, rats and dogs as well as the quantification of the activity of the compounds of the invention is carried out using recombinant cell lines. These cell lines originally derive from a hamster's ovary epithelial cell (Chinese Hamster Ovary, CHO K1, ATCC: American Type Culture Collection, Manassas, Va. 20108, USA). The test cell lines constitutively express the human, rat or dog V1a or V2 receptors. In case of the Gaq-coupled V1a receptors, cells are also stably transfected with a modified form of the calcium-sensitive photoproteins aequorin (human and rat V1a) or obelin (dog V1a), which, after reconstitution with the cofactor coelenterazine, emit light when there are increases in free calcium concentrations [Rizzuto R, Simpson A W, Brini M, Pozzan T, Nature 358, 325-327 (1992); Illarionov B A, Bondar V S, Illarionova V A, Vysotski E S, Gene 153 (2), 273-274 (1995)]. The resulting vasopressin receptor cells react to stimulation of the recombinantly expressed Via receptors by intracellular release of calcium ions, which can be quantified by the resulting photoprotein luminescence. The Gs-coupled V2 receptors are stably transfected into cell lines expressing the gene for firefly luciferase under control of a CRE-responsible promoter. Activation of V2 receptors induces the activation of the CRE-responsive promoter via cAMP increase, thereby inducing the expression of firefly luciferase. The light emitted by photoproteins of V1a cell lines as well as the light emitted by firefly luciferase of V2 cell lines corresponds to the activation or inhibition of the respective vasopressin receptor. The bioluminescence of the cell lines is detected using a suitable luminometer [Milligan G, Marshall F, Rees S, Trends in Pharmacological Sciences 17, 235-237 (1996)].
Vasopressin V2 Receptor Cell Lines:
On the day before the assay, the cells are plated out in culture medium (DMEM/F12, 2% FCS, 2 mM glutamine, 10 mM HEPES) in 384-well microtiter plates and kept in a cell incubator (96% humidity, 5% v/v CO2, 37C). On the day of the assay, test compounds in various concentrations and the agonist [Arg^8]-vasopressin at EC50 concentration are added together to the wells, and plates are incubated for 3 hours in a cell incubator. Upon addition of the cell lysis reagent Triton™ and the substrate luciferin, luminescence of firefly luciferase is measured in a luminometer.
(§3) Table 1A below lists individual IC50 values for the compounds of the invention (including racemic mixtures as well as separated enantiomers) that were obtained from cell lines transfected with the human V1a or V2 receptor. This means these IC50 values are the values for the prodrug and not for the underlying respective drug as the prodrug is mainly stable under the assay conditions.

[2] = target: T2, human V1a receptor (Homo sapiens, UniProt P37288); experiment: Cellular in vitro assay for vasopressin receptor activity (V1a, aequorin luminescence); format: cell-based; conditions: for IC50: CHO cell line with human V1a receptor, [Arg8]-vasopressin at EC50, values are for the prodrug as such, read-out: IC50 hV1a; for ratio IC50 hV2/hV1a: selectivity ratio hV2/hV1a
T2 construct: expressed in transfected cells; host or cells: CHO K1 (Chinese hamster ovary), also stably transfected with a modified aequorin
T2 sequence (P37288 whole entry): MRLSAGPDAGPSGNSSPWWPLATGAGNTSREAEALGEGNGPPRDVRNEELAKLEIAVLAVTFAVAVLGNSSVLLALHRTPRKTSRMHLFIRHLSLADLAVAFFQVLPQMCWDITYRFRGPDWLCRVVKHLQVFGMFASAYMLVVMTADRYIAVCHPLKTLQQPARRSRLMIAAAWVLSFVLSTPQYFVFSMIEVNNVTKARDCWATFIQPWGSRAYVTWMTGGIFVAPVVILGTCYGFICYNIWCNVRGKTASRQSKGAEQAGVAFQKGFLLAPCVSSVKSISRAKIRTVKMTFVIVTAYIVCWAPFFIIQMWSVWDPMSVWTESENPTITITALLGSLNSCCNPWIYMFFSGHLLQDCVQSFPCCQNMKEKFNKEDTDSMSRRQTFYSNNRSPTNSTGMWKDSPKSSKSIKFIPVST
Description: as §1, §2
Vasopressin V1a Receptor Cell Lines:
On the day before the assay, the cells are plated out in culture medium (DMEM/F12, 2% FCS, 2 mM glutamine, 10 mM HEPES, 5 μg/ml coelenterazine) in 384-well microtiter plates and kept in a cell incubator (96% humidity, 5% v/v CO2, 37C). On the day of the assay, test compounds in various concentrations are placed for 10 minutes in the wells of the microtiter plate before the agonist [Arg^8]-vasopressin at EC50 concentration is added. The resulting light signal is measured immediately in a luminometer.
as §3

Structure (SMILES)	IC50 [1] [nM]	IC50 [2] [nM]	ratio IC50 hV2/hV1a ([2]; Phosphate)	ratio IC50 hV2/hV1a [2]
NC(=O)c1nc(Cn2nc(-c3ccc(Cl)cc3)n(C[C@H](OP(=O)([O-])O)C(F)(F)F)c2=O)nn1-c1ncccc1C(F)(F)F.[K+] [Example 2, Potassium (2S)-3-[1-({5-carbamoyl-1-[3-(trifluoromethyl)pyridin-2-yl]-1H-1,2,4-triazol-3-yl}-methyl)-3-(4-chlorophenyl)-5-oxo-1,5-dihydro-4H-1,2,4-triazol-4-yl]-1,1,1-trifluoropropan-2-yl Hydrogen Phosphate]	620	39.5	15.7	
NC(=O)c1nc(Cn2nc(-c3ccc(Cl)cc3)n(C[C@H](OP(=O)([O-])O)C(F)(F)F)c2=O)nn1-c1ncccc1C(F)(F)F.[K+] [Example 3, Potassium (2S)-3-[1-({5-carbamoyl-1-[3-(trifluoromethyl)pyridin-2-yl]-1H-1,2,4-triazol-3-yl}-methyl)-3-(4-chlorophenyl)-5-oxo-1,5-dihydro-4H-1,2,4-triazol-4-yl]-1,1,1-trifluoropropan-2-yl Hydrogen Phosphate]	123	6.15	20.0	
NC(=O)c1nc(Cn2nc(-c3ccc(Cl)cc3)n(C[C@H](OP(=O)([O-])O)C(F)(F)F)c2=O)nn1-c1ncccc1C(F)(F)F.[Na+] [Example 5, Sodium (2S)-3-[1-({5-carbamoyl-1-[3-(trifluoromethyl)pyridin-2-yl]-1H-1,2,4-triazol-3-yl}-methyl)-3-(4-chlorophenyl)-5-oxo-1,5-dihydro-4H-1,2,4-triazol-4-yl]-1,1,1-trifluoropropan-2-yl Hydrogen Phosphate]	85	5.05	16.8	
NC(=O)c1nc(Cn2nc(-c3ccc(Cl)cc3)n(C[C@H](OP(=O)([O-])[O-])C(F)(F)F)c2=O)nn1-c1ncccc1C(F)(F)F.[Ca+2] [Example 8, Calcium (2S)-3-[1-({5-carbamoyl-1-[3-(trifluoromethyl)pyridin-2-yl]-1H-1,2,4-triazol-3-yl}-methyl)-3-(4-chlorophenyl)-5-oxo-1,5-dihydro-4H-1,2,4-triazol-4-yl]-1,1,1-trifluoropropan-2-yl Phosphate]	145	17		8.5
NC(=O)c1nc(Cn2nc(-c3ccc(Cl)cc3)n(C[C@H](OP(=O)([O-])O)C(F)(F)F)c2=O)nn1-c1ccccc1C(F)(F)F.[K+] [Example 11, Potassium (2S)-3-[1-({5-carbamoyl-1-[2-(trifluoromethyl)phenyl]-1H-1,2,4-triazol-3-yl}methyl)-3-(4-chlorophenyl)-5-oxo-1,5-dihydro-4H-1,2,4-triazol-4-yl]-1,1,1-trifluoropropan-2-yl Hydrogen Phosphate]	37	40.5	0.9	
NC(=O)c1nc(Cn2nc(-c3ccc(Cl)cc3)n(C[C@H](OP(=O)([O-])O)C(F)(F)F)c2=O)nn1-c1ccccc1C(F)(F)F.[K+] [Example 12, Potassium (2S)-3-[1-({5-carbamoyl-1-[2-(trifluoromethyl)phenyl]-1H-1,2,4-triazol-3-yl}methyl)-3-(4-chlorophenyl)-5-oxo-1,5-dihydro-4H-1,2,4-triazol-4-yl]-1,1,1-trifluoropropan-2-yl Hydrogen Phosphate]	24	16.5	1.5	
NC(=O)c1nc(Cn2nc(-c3ccc(Cl)cc3)n(C[C@H](OP(=O)([O-])O)C(F)(F)F)c2=O)nn1-c1ccccc1C(F)(F)F.[Na+] [Example 13, Sodium (2S)-3-[1-({5-carbamoyl-1-[2-(trifluoromethyl)phenyl]-1H-1,2,4-triazol-3-yl}methyl)-3-(4-chlorophenyl)-5-oxo-1,5-dihydro-4H-1,2,4-triazol-4-yl]-1,1,1-trifluoropropan-2-yl Hydrogen Phosphate]	26.5	19	1.4	
